SMILES strings stand for the structures.

From US11590116B2 (THERAVANCE BIOPHARMA R&D IP, LLC, priority 2019, dated 2023) come the findings set out here.

Experiment [1] relates to TGF-β-stimulated SMAD3 phosphorylation in BEAS-2B cells. The experiment is described as follows: Cellular ALK5 potency assay, inhibition of TGF-β stimulated pSMAD3 formation in BEAS-2B cells. Type of experiment: cell-based. The following applies: Homo sapiens; inhibition of TGF-β stimulated pSMAD3 formation, BEAS-2B cells; read-out: BEAS2B pIC50 (converted). Put shortly: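 Cells seeded overnight; rinse with supplemented HBSS; compound 1 h at 37 °C; TGF-β 10 ng/mL final, 30 min; lyse; AlphaLISA acceptor and detector beads 2 h apart, read next day. Potency expressed as pIC50.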

The target of experiment [2] is T1, recombinant human ALK5 (TGF-βR1) protein (Homo sapiens, UniProt P36897).
T1 construct: purchased Life Technologies PR9075A
T1 sequence (P36897 34-503): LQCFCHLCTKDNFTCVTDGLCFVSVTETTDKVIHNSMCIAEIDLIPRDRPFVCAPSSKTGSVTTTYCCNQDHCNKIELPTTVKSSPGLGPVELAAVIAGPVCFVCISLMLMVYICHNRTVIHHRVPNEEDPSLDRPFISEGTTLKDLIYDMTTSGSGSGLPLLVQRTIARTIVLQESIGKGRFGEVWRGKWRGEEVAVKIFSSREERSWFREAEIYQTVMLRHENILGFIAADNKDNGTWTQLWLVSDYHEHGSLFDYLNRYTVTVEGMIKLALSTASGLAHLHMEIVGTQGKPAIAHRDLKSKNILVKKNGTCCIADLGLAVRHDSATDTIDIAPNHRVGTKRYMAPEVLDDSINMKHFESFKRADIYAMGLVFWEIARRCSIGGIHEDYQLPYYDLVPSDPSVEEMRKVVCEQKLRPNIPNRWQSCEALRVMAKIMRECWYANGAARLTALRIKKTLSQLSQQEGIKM
The experiment is described as follows: Biochemical ALK5 (TGF-βR1) assay to measure pKi (LANCE Ultra ULight kinase assay). Conditions: apparent pKi from pIC50 by Cheng-Prusoff, read-out: ALK5 pKi (converted). Put shortly:
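After a 60 min room-temperature preincubation of ALK5 with compound, phosphorylation proceeds 60 min at 37 °C on ATP addition (125 μM as 5× stock). Detection: Eu-labelled phospho-Thr1342 Topo IIα antibody in EDTA buffer, pH 7.0; emission 665 nm.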

With `Cc1cccc(-c2n[nH]cc2-c2ccc3ncc(-c4c[nH]nn4)cc3n2)n1` [Compound 355, 2-[3-(6-methyl-2-pyridyl)-1H-pyrazol-4-yl]-7-(1H-triazol-4-yl)-1,5-naphthyridine], in experiment [1], the IC50 was less than 20 nM. The Ki in experiment [2] was less than 0.0316 nM.

As to `Cc1cccc(-c2[nH]cnc2-c2ccc3ncc(C(=O)O[C@H]4C[C@@H](N)C4)cc3c2)n1` [Compound 759, (3-aminocyclobutyl) 6-[5-(6-methyl-2-pyridyl)-1H-imidazol-4-yl]quinoline-3-carboxylate], the IC50 in experiment [1] is 25.1 to 158 nM. Moreover, in experiment [2], the Ki is 0.0398 to 0.316 nM.

As to `Cc1nc(-c2n[nH]cc2-c2ccc3ncc(-c4ccc5c(n4)CCNC5)cc3n2)ccc1F` [Compound 34, 2-[3-(5-fluoro-6-methyl-2-pyridyl)-1H-pyrazol-4-yl]-7-(5,6,7,8-tetrahydro-1,6-naphthyridin-2-yl)-1,5-naphthyridine], in experiment [1], the IC50 is 25.1 to 158 nM. The Ki in experiment [2] was less than 0.0316 nM.

In the case of `Cc1cccc(-c2n[nH]cc2-c2ccc3ncc(-c4cn[nH]c4)cc3n2)n1` [Compound 233, 2-[3-(6-methyl-2-pyridyl)-1H-pyrazol-4-yl]-7-(1H-pyrazol-4-yl)-1,5-naphthyridine], the IC50 in experiment [1] was less than 20 nM. In addition, the Ki in experiment [2] was less than 0.0316 nM.

As for `Cc1cccc(-c2[nH]cnc2-c2ccc3ncc(-c4csc(C(=O)O)c4)cc3c2)n1` [Compound 798, 4-(6-(5-(6-methylpyridin-2-yl)-1H-imidazol-4-yl)quinolin-3-yl)thiophene-2-carboxylic acid], the IC50 in experiment [1] is 1580 to 10000 nM. Besides, the Ki in experiment [2] was 0.0398 to 0.316 nM.

In the case of `Cc1cccc(-c2[nH]cnc2-c2ccc3ncc(-c4nccc(C(=O)OCC5CNC5)n4)cc3c2)n1` [Compound 1098, azetidin-3-ylmethyl 2-[6-[5-(6-methyl-2-pyridyl)-1H-imidazol-4-yl]-3-quinolyl]pyrimidine-4-carboxylate], in experiment [1], the IC50 was 200 to 1260 nM. Moreover, the Ki in experiment [2] was 0.0398 to 0.316 nM.

With `Cc1cccc(-c2[nH]cnc2-c2ccc3ncc(C(=O)OC[C@H]4CCCNC4)cc3c2)n1` [Compound 772, [(3S)-3-piperidyl]methyl 6-[5-(6-methyl-2-pyridyl)-1H-imidazol-4-yl]quinoline-3-carboxylate], in experiment [1], the IC50 was 25.1 to 158 nM. Besides, the Ki in experiment [2] was 0.0398 to 0.316 nM.

For the compound `Cc1cccc(-c2[nH]cnc2-c2ccc3ncc(-c4csc(C(=O)OC[C@@H]5CCCCN5)c4)cc3c2)n1` [Compound 1213, [(2S)-2-piperidyl]methyl 4-[6-[5-(6-methyl-2-pyridyl)-1H-imidazol-4-yl]-3-quinolyl]thiophene-2-carboxylate], in experiment [1], the IC50 is 25.1 to 158 nM. The Ki in experiment [2] is less than 0.0316 nM.

For `Cc1cccc(-c2n[nH]cc2-c2ccc3ncc(C4=CCC(NC(C)C)CC4)cc3n2)n1` (stereo not shown) [Compound 417, N-isopropyl-4-[6-[3-(6-methyl-2-pyridyl)-1H-pyrazol-4-yl]-1,5-naphthyridin-3-yl]cyclohex-3-en-1-amine], the IC50 in experiment [1] is 25.1 to 158 nM. In addition, the Ki in experiment [2] was less than 0.0316 nM.

Consider `Cc1nc(-c2n[nH]cc2-c2ccc3ncc(-c4cnn(C[C@H]5CC[C@H](N)CC5)c4)cc3n2)ccc1F` [Compound 551, 4-[[4-[6-[3-(5-fluoro-6-methyl-2-pyridyl)-1H-pyrazol-4-yl]-1,5-naphthyridin-3-yl]pyrazol-1-yl]methyl]cyclohexanamine], for which, in experiment [1], the IC50 was 25.1 to 158 nM. The Ki in experiment [2] is less than 0.0316 nM.

Turning to `Cc1cccc(-c2[nH]cnc2-c2ccc3ncc(-c4nc(C(=O)O[C@@H]5CCN(C)C5)cs4)cc3c2)n1` [Compound 744, [(3R)-1-methylpyrrolidin-3-yl] 2-[6-[5-(6-methyl-2-pyridyl)-1H-imidazol-4-yl]-3-quinolyl]thiazole-4-carboxylate], in experiment [1], the IC50 was 25.1 to 158 nM. The Ki in experiment [2] is 0.0398 to 0.316 nM.

Regarding `Cc1cccc(-c2n[nH]cc2-c2ccc3ncc(N4CCCN(C)CC4)cc3n2)n1` [Compound 144, 7-(4-methyl-1,4-diazepan-1-yl)-2-[3-(6-methyl-2-pyridyl)-1H-pyrazol-4-yl]-1,5-naphthyridine], the IC50 in experiment [1] is 25.1 to 158 nM. For the same compound, in experiment [2], the Ki was 0.0398 to 0.316 nM.

With `Cc1cccc(-c2[nH]cnc2-c2ccc3ncc(-c4cncc(C(=O)O[C@@H]5CCN(C)C5)c4)cc3c2)n1` [Compound 396, [(3R)-1-methylpyrrolidin-3-yl] 5-[6-[5-(6-methyl-2-pyridyl)-1H-imidazol-4-yl]-3-quinolyl]pyridine-3-carboxylate], in experiment [1], the IC50 is 25.1 to 158 nM. In addition, the Ki in experiment [2] was 0.0398 to 0.316 nM.

Regarding `Cc1nc(-c2nc3ccccn3c2-c2ccc3ncc(N4CCNCC4)cc3n2)ccc1F` [Compound 2, 2-[2-(5-fluoro-6-methyl-2-pyridyl)imidazo[1,2-a]pyridin-3-yl]-7-piperazin-1-yl-1,5-naphthyridine], in experiment [1], the IC50 is 25.1 to 158 nM. Also, the Ki in experiment [2] is 0.0398 to 0.316 nM.

Turning to `Cc1cccc(-c2[nH]cnc2-c2ccc3ncc(-c4csc(C(=O)OC5CNC5)c4)cc3c2)n1` [Compound 752, azetidin-3-yl 4-[6-[5-(6-methyl-2-pyridyl)-1H-imidazol-4-yl]-3-quinolyl]thiophene-2-carboxylate], the IC50 in experiment [1] is 25.1 to 158 nM. Further, the Ki in experiment [2] is 0.0398 to 0.316 nM.

For the compound `Cc1cccc(-c2[nH]cnc2-c2ccc3ncc(-c4ccc(C(=O)O[C@H]5CCN(C)C5)nc4)cc3c2)n1` [Compound 722, [(3S)-1-methylpyrrolidin-3-yl] 5-[6-[5-(6-methyl-2-pyridyl)-1H-imidazol-4-yl]-3-quinolyl]pyridine-2-carboxylate], the IC50 in experiment [1] is less than 20 nM. For the same compound, the Ki in experiment [2] was 0.0398 to 0.316 nM.

`Cc1cccc(-c2n[nH]cc2-c2ccc3nccc(-c4nc(CO)co4)c3n2)n1` [Compound 852, [2-[6-[3-(6-methyl-2-pyridyl)-1H-pyrazol-4-yl]-1,5-naphthyridin-4-yl]oxazol-4-yl]methanol]: the IC50 in experiment [1] is 25.1 to 158 nM. The Ki in experiment [2] was 0.0398 to 0.316 nM.

`Cc1cccc(-c2[nH]cnc2-c2ccc3ncc(-c4csc(C(=O)O[C@H]5CCN(C)C5)c4)cc3c2)n1` [Compound 755, [(3S)-1-methylpyrrolidin-3-yl] 4-[6-[5-(6-methyl-2-pyridyl)-1H-imidazol-4-yl]-3-quinolyl]thiophene-2-carboxylate]: the IC50 in experiment [1] was less than 20 nM. Also, the Ki in experiment [2] was 0.0398 to 0.316 nM.

Regarding `Cc1cccc(-c2[nH]cnc2-c2ccc3ncc(-c4csc(C(=O)OCCNC5CNC5)c4)cc3c2)n1` [Compound 1235, 2-(azetidin-3-ylamino)ethyl 4-[6-[5-(6-methyl-2-pyridyl)-1H-imidazol-4-yl]-3-quinolyl]thiophene-2-carboxylate], the IC50 in experiment [1] is 25.1 to 158 nM. In addition, in experiment [2], the Ki was 0.0398 to 0.316 nM.

In the case of `COc1[nH]nc(-c2cccc(C)n2)c1-c1ccc2ncc(N)cc2n1` [Compound 600, 6-(5-methoxy-3-(6-methylpyridin-2-yl)-1H-pyrazol-4-yl)-1,5-naphthyridin-3-amine], the IC50 in experiment [1] was 25.1 to 158 nM. The Ki in experiment [2] is 0.0398 to 0.316 nM.

Consider `Cc1cccc(-c2n[nH]cc2-c2ccc3ncc(OCC(=O)N4CCOCC4)cc3n2)n1` [Compound 486, 2-[[6-[3-(6-methyl-2-pyridyl)-1H-pyrazol-4-yl]-1,5-naphthyridin-3-yl]oxy]-1-morpholino-ethanone], for which the IC50 in experiment [1] was 1580 to 10000 nM. In experiment [2], the Ki was 3.98 to 31.6 nM.

For the compound `Cc1cccc(-c2[nH]cnc2-c2ccc3ncc(-c4nc(C(=O)OCCN5CCNCC5)cs4)cc3c2)n1` [Compound 1145, 2-piperazin-1-ylethyl 2-[6-[5-(6-methyl-2-pyridyl)-1H-imidazol-4-yl]-3-quinolyl]thiazole-4-carboxylate], the IC50 in experiment [1] is 25.1 to 158 nM. The Ki in experiment [2] is 0.0398 to 0.316 nM.

For `Cc1cccc(-c2n[nH]cc2-c2ccc3ncc(-c4cccc(F)c4)cc3n2)n1` [Compound 58, 7-(3-fluorophenyl)-2-[3-(6-methyl-2-pyridyl)-1H-pyrazol-4-yl]-1,5-naphthyridine], the IC50 in experiment [1] was 25.1 to 158 nM. For the same compound, in experiment [2], the Ki is 0.0398 to 0.316 nM.

`Cc1cccc(-c2[nH]nnc2-c2ccc3ncc(N4CCC(N5CCN(C)CC5)CC4)cc3c2)n1` [Compound 346, 3-[4-(4-methylpiperazin-1-yl)-1-piperidyl]-6-[5-(6-methyl-2-pyridyl)-1H-triazol-4-yl]quinoline]: in experiment [1], the IC50 was 25.1 to 158 nM. Also, the Ki in experiment [2] was 0.0398 to 0.316 nM.

On to `CNCCn1cc(-c2cnc3ccc(-c4c[nH]nc4-c4cccc(C)n4)cc3c2)cn1` [Compound 589, N-methyl-2-[4-[6-[3-(6-methyl-2-pyridyl)-1H-pyrazol-4-yl]-3-quinolyl]pyrazol-1-yl]ethanamine], for which the IC50 in experiment [1] was less than 20 nM. Further, the Ki in experiment [2] was less than 0.0316 nM.

With `CNCCn1cc(-c2cnc3ccc(-c4c(-c5cccc(C)n5)[nH]c5cccnc45)nc3c2)cn1` [Compound 165, N-methyl-2-[4-[6-[2-(6-methyl-2-pyridyl)-1H-pyrrolo[3,2-b]pyridin-3-yl]-1,5-naphthyridin-3-yl]pyrazol-1-yl]ethanamine], the IC50 in experiment [1] was 200 to 1260 nM. The Ki in experiment [2] is 0.0398 to 0.316 nM.
